Test results published in US11084847B2, “Polyamide compound and use thereof” (SICHUAN KELUN-BIOTECH BIOPHARMACEUTICAL CO., LTD., priority 2016, dated 2021).
Read-outs that look alike come from different tables or passages of the source.

Assays:
[1] = target: T1, human κ-opioid receptor (KOR) (Homo sapiens, UniProt P41145); assay: κ-opioid receptor agonistic effect (inhibition of adenylate cyclase, cAMP assay); format: cell-based
T1 construct: expressed in transfected cells
Experimental: The efficacy of the compounds of the invention as κ-opioid receptor agonists was determined by measuring the ability of the compounds of Examples to inhibit adenylate cyclase activity.
Cell culture: hamster ovary cells CHO stably expressing human κ-opioid receptor (KOR) gene were cultured in MEMα plus nucleosides medium (Invitrogen) containing 5% FBS.
Stimulation: the test compound was 4-fold diluted in a gradient manner to obtain 11 concentrations, and 100 nl of each was transferred to a 384-well plate, and then a stimulating solution (5 uL) containing NKH477 (Tocris) was added; the cells were digested, re-suspended, and counted; and then the cells (5 uL) were added to wells, mixed gently, and incubated at 37° C. for 30 min.
Detection: cAMP Assay Kit (Cisbio) was used, cAMP-D2 and Anti-cAMP-Cryptate were added separately, and the resultant mixture was incubated for 1 h at room temperature. The plate was read using envision (Perkin Elmer) and EC50 was obtained by means of fitting with a four-parameter equation.

male ICR mice = assay: Acetic acid-induced writhing test in mice; format: in vivo; parameters: ED50: unit not given here; settings: for ED50: iv administration 15 min before 0.6% acetic acid ip, writhes counted within 15 min
Experimental: The analgesic effect of the compound of the invention was evaluated by measuring the ED50 of the compounds of Examples in the acetic acid-induced writhing test in mice.
The commercial glacial acetic acid solution was diluted with physiological saline to 0.6% glacial acetic acid solution. The male ICR mice were randomly separated into the drug group and the model group (to which physiological saline was administration). 15 minutes after iv administration, 0.6% acetic acid solution was intraperitoneally injected at 10 ml/kg, and the mice was immediately recorded with DV camera for 15 min. After the recording, the number of writhes of the mice within 15 min was counted from the video by blind method, the inhibition rate for the writhes was calculated according to Formula (I), and the ED50 of the compound was calculated according to Formula (II).
(I) The inhibition rate for the writhes was calculated by the formula: Inhibition rate (%)=(the number of writhes in a model group−the number of writhes in a drug group)/the number of writhes in a model group*100.
(II) The ED50 was calculated by the formula:
[formula] wherein Xm was the logarithm of the highest dose, d was the difference in the logarithm of two adjacent doses, p was the inhibition rate for each dose group, pm was the highest-dose inhibition rate, and pn was the lowest-dose inhibition rate.

KOR = KOR (Homo sapiens, UniProt P41145); assay: Opioid receptor selectivity, radioligand competition binding (3H-diprenophrine) on cell membranes
Experimental: (§1) The selectivity of the compounds of the invention for κ opioid receptors was determined by measuring the inhibitory effect of the compounds of Examples on the […] of KOR, MOR, and DOR.
(§2) The compounds of Examples at different concentrations were incubated with the cell membrane with high expression of KOR, MOR, DOR and the corresponding radioligand (KOR: 3H-diprenophrine; MOR: 3H-DAMGO; DOR: 3H-DADLE) for 1 h, the compounds of Examples competed with the radioligands for binding to KOR, MOR, DOR. After the incubation, Cell harvest was used to collect cell membranes onto a Unifilter-96 GF/C filter plate, and the unbound radioligands were washed away. The plate was placed in a 50-degree oven for 1 h, and finally the scintillation solution Microscint 20 cocktail was added and the isotope signal was detected by MicroBeta2 Reader.
(§3) According to the intensity of the isotope signal at different concentrations, the IC50 was calculated by means of fitting with a four-parameter equation, and the Ki value was calculated.
(§4) The Ki value was calculated according to the formula Ki=IC50/(1+[radioligand]/Kd), and Kd was the equilibrium dissociation constant of radioligand.

DOR = DOR (Homo sapiens, UniProt P41143); assay: Opioid receptor selectivity, radioligand competition binding (3H-DADLE) on cell membranes
Experimental: as §1, §2, §3, §4

MOR = MOR (Homo sapiens, UniProt P35372); assay: Opioid receptor selectivity, radioligand competition binding (3H-DAMGO) on cell membranes
Experimental: as §1, §2, §3, §4

[2] = Pharmacokinetic (PK) study in rats; format: in vivo; settings: male SD rats, intravenous, 1 mg/kg; for AUC(0-t) / Cmax / Vd / half-life: rat, plasma
Experimental: The pharmacokinetic profile of the compounds of Examples was studied by intravenous administration of the compounds of Examples to male SD rats. The dose for IV administration was 1 mg/kg, and the solvent was 5% DMSO: 5% solutol: 90% physiological saline. After IV administration, blood samples were collected at different time points for PK study. Plasma were treated by protein precipitation and then analyzed by LC-MS/MS.
In LC-MS/MS, mass spectrum was API 5500, and liquid chromatography was Shimadzu LC-30AD system. The column used for the test groups of Compound 3 and Compound 4 was Thermo C18 column (4.6 mm×100 mm, 3 μm); for mobile phases, phase A was water+0.1% formic acid, and phase B was methanol; the flow rate was 0.8 mL/min, and the column temperature was 40° C. The column used for the test group of Compound 5 was Agela AQ C18 column (2.1 mm×50 mm, 1.9 μm); for mobile phases, phase A was water+0.05% formic acid+5 mM acetic acid ammonium, and phase B was methanol+0.05% formic acid; the flow rate was 0.6 mL/min, and the column temperature was 40° C. The ion source used was the ESI source in positive ion mode, and the scanning mode was Multiple Reaction Monitoring (MRM).

[3] = CHO cells stably expressing human KOR, NKH477-stimulated cAMP, four-parameter fit, read-out: ED50 (the source's name)
[4] = Ki=IC50/(1+[radioligand]/Kd), read-out: KOR Ki
[5] = radioligand 3H-diprenophrine, 1 h incubation, read-out: KOR IC50
[6] = Ki=IC50/(1+[radioligand]/Kd), read-out: DOR Ki
[7] = radioligand 3H-DADLE, 1 h incubation, read-out: DOR IC50
[8] = Ki=IC50/(1+[radioligand]/Kd), read-out: MOR Ki
[9] = radioligand 3H-DAMGO, 1 h incubation, read-out: MOR IC50

Compound | EC50 [1, 3] [nM] | ED50 (male ICR mice) | pharmacokinetic profile (in words) [2] | AUC(0-t) [2] [ng·h/mL] | Cmax [2] [ng/mL] | Vd [2] [L/kg] | half-life [2] [min] | further results
CC(C)C[C@@H](NC(=O)[C@@H](Cc1ccccc1)NC(=O)[C@H](N)Cc1ccccc1)C(=O)N[C@H](CCCCNCC(=O)O)C(=O)N1CCC(N)(C(=O)O)CC1 [Example 17, 4-amino-1-((R)-2-((R)-2-((R)-2-((R)-2-amino-3-phenylpropanamido)-3-phenylpropanamido)-4-methylpentanamido)-6-((carboxymethyl)amino)hexanoyl)piperidin-4-carboxylic acid] | 0.42 |  |  |  |  |  |  | 
CC(C)C[C@@H](NC(=O)[C@@H](Cc1ccccc1)NC(=O)[C@H](N)Cc1ccccc1)C(=O)N[C@H](CCCCNCCCN)C(=O)N1CCC(N)(C(=O)O)CC1 [Example 4, 4-amino-1-((R)-2-((R)-2-((R)-2-((R)-2-amino-3-phenylpropanamido)-3-phenylpropanamido)-4-methylpentanamido)-6-((3-aminopropyl)amino)hexanoyl)piperidin-4-carboxylic acid] | 0.07 | 0.029 | good exposure amount and Cmax | 2410 | 3590 | 0.74 | 73.2 | Ki (KOR; [4]): < 0.01 nM; IC50 (KOR; [5]): < 0.03 nM; Ki (DOR; [6]): > 12000 nM; IC50 (DOR; [7]): > 20000 nM; Ki (MOR; [8]): > 7180 nM; IC50 (MOR; [9]): > 20000 nM
COCCOCCNCCCC[C@@H](NC(=O)[C@@H](CC(C)C)NC(=O)[C@@H](Cc1ccccc1)NC(=O)[C@H](N)Cc1ccccc1)C(=O)N1C2CC1CN(CC(=O)O)C2 [Example 24, 2-(6-((R)-2-((R)-2-((R)-2-((R)-2-amino-3-phenylpropanamido)-3-phenylpropanamido)-4-methylpentanamido)-6-((2-(2-methoxyethoxy)ethyl)amino)hexanoyl)-3,6-diazabicyclo[3.1.1]heptan-3-yl)acetic acid] | 0.005 |  |  |  |  |  |  | 
CC(C)C[C@@H](NC(=O)[C@@H](Cc1ccccc1)NC(=O)[C@H](N)Cc1ccccc1)C(=O)N[C@H](CCCCNC(CO)CO)C(=O)N1CCC(N)(C(=O)O)CC1 [Example 8, 4-amino-1-((R)-2-((R)-2-((R)-2-((R)-2-amino-3-phenylpropanamido)-3-phenylpropanamido)-4-methylpentanamido)-6-((1,3-dihydroxypropan-2-yl)amino)hexanoyl)piperidin-4-carboxylic acid] | 0.03 |  |  |  |  |  |  | 
COCCOCCNCCCC[C@@H](NC(=O)[C@@H](CC(C)C)NC(=O)[C@@H](Cc1ccccc1)NC(=O)[C@H](N)Cc1ccccc1)C(=O)N1CCC2(CC1)NC(=O)NC2=O [Example 23, 8-((R)-2-((R)-2-((R)-2-((R)-2-amino-3-phenylpropanamido)-3-phenylpropanamido)-4-methylpentanamido)-6-(2-(methoxyethoxy)ethylamino)hexanoyl)-1,3,8-triaza-spiro[4.5]decane-2,4-dione] | 0.016 |  |  |  |  |  |  | 
COCCOCCOCCOCCOCCOCCOCCNCCCC[C@@H](NC(=O)[C@@H](CC(C)C)NC(=O)[C@@H](Cc1ccccc1)NC(=O)[C@H](N)Cc1ccccc1)C(=O)N1CCC(N)(C(=O)O)CC1 [Example 6, 4-amino-1-((R)-28-((R)-2-((R)-2-((R)-2-amino-3-phenylpropanamido)-3-phenylpropanamido)-4-methylpentanamido)-2,5,8,11,14,17,20-heptaoxa-23-azanonacosan-29-oyl)piperidin-4-carboxylic acid] |  | 0.036 | good exposure amount and Cmax | 2180 | 3660 | 0.2 | 17.4 | analgesic effect (in words) (male ICR mice; acetic acid-induced writhing, mice, iv): significant analgesic effect; IC50 (KOR): 0.33 nM; Ki (KOR): 0.11 nM; KOR selectivity (in words) (KOR; KOR versus MOR and DOR binding): excellent KOR selectivity; EC50 [1]: 0.11 nM; IC50 (DOR): > 20000 nM; Ki (DOR): > 12000 nM; IC50 (MOR): > 20000 nM; Ki (MOR): > 7180 nM
CC(C)C[C@@H](NC(=O)[C@@H](Cc1ccccc1)NC(=O)[C@H](N)Cc1ccccc1)C(=O)N[C@H](CCCCNCCN)C(=O)N1CCC(N)(C(=O)O)CC1 [Example 3, 4-amino-1-((R)-2-((R)-2-((R)-2-((R)-2-amino-3-phenylpropanamido)-3-phenylpropanamido)-4-methylpentanamido)-6-((2-aminoethyl)amino)hexanoyl)piperidin-4-carboxylic acid] | 0.06 | 0.041 | good exposure amount and Cmax | 1790 | 2650 | 0.28 | 20.4 | Ki (KOR; [4]): < 0.01 nM; IC50 (KOR; [5]): < 0.03 nM; Ki (DOR; [6]): > 12000 nM; IC50 (DOR; [7]): > 20000 nM; Ki (MOR; [8]): > 7180 nM; IC50 (MOR; [9]): > 20000 nM
CC(C)C[C@@H](NC(=O)[C@@H](Cc1ccccc1)NC(=O)[C@H](N)Cc1ccccc1)C(=O)N[C@H](CCCCNC[C@@H](O)CO)C(=O)N1CCC(N)(C(=O)O)CC1 [Example 1, 4-amino-1-((R)-2-((R)-2-((R)-2-((R)-2-amino-3-phenylpropanamido)-3-phenylpropanamido)-4-methylpentanamido)-6-(((R)-2,3-dihydroxypropyl)amino)hexanoyl)piperidin-4-carboxylic acid] | 0.09 |  |  |  |  |  |  | 
CC(C)C[C@@H](NC(=O)[C@@H](Cc1ccccc1)NC(=O)[C@H](N)Cc1ccccc1)C(=O)N[C@H](CCCCNC[C@H](O)CO)C(=O)N1CCC(N)(C(=O)O)CC1 [Example 2, 4-amino-1-((R)-2-((R)-2-((R)-2-((R)-2-amino-3-phenylpropanamido)-3-phenylpropanamido)-4-methylpentanamido)-6-(((S)-2,3-dihydroxypropyl)amino)hexanoyl)piperidin-4-carboxylic acid] | 0.08 |  |  |  |  |  |  | 
COCCOCCN(CCCC[C@@H](NC(=O)[C@@H](CC(C)C)NC(=O)[C@@H](Cc1ccccc1)NC(=O)[C@H](N)Cc1ccccc1)C(=O)N1CCC(N)(C(=O)O)CC1)CCOCCOC [Example 15, 4-amino-1-((R)-2-((R)-2-((R)-2-((R)-2-amino-3-phenylpropanamido)-3-phenylpropanamido)-4-methylpentanamido)-6-(di(2-(2-methoxyethoxy)ethyl)amino)hexanoyl)piperidin-4-carboxylic acid] | 0.06 |  |  |  |  |  |  | 
